From PMC8881573, “Inhibition of SRP-dependent protein secretion by the bacterial alarmone (p)ppGpp” (Nature Communications, 2022)

Tests used:
[1] = test system: SRP-dependent membrane insertion of YohP into INV; test: Post-translational YohP insertion into inverted inner membrane vesicles (INV), proteinase K resistance; type: biochemical, E. coli; conditions: at 0.6 mM (p)ppGpp, 10 µM GTP
Description: For protein transport assay, YohP cloned in pET19b was synthesized in vitro using a purified transcription/translation system composed of cytosolic translation factors (CTF) and high salt-washed ribosomes[35],[36]. The ^35S-Methionine/^35S-Cysteine labeling mix was obtained from Perkin Elmer (Wiesbaden, Germany). INVs of E. coli cells were prepared by sucrose gradient centrifugation of cell extracts as described[76] and resuspended in INV buffer (50 mM triethanolamine acetate, pH 7.5, 200 mM sucrose, 1 mM DTT). […] The supernatant containing YohP was then incubated with INV, liposomes or SecYEG-proteoliposomes for 10 min at 37 °C in the presence of 10 µM GTP. […] Next, the samples were denatured at 56 °C for 10 min in 35 μL of TCA loading dye (prepared by mixing one part of solution III (1 M dithiothreitol) with 4 parts of solution II (6.33% (w/v) SDS, 0.083 M Tris, 30% (v/v) glycerol and 0.053% (w/v) bromophenol blue) and 5 parts of solution I (0.2 M Tris, 0.02 M EDTA pH 8)) and analyzed after separation on a modified SDS-PAGE[35] by phosphor imaging. For quantification of YohP insertion, autoradiography samples were analyzed by using the ImageQuant (GE Healthcare) software. […] Mean values and SEM values were determined by using either Excel (Microsoft Corp.) or GraphPad Prism (GraphPad Prism Corp. San Diego). […]

SRP/FtsY = target: T1, SRP/FtsY (Escherichia coli, UniProt P0AGD7+P10121); test: Floatation analysis of co-translational membrane targeting of RNCs to SecYEG-proteoliposomes; type: biochemical, E. coli; conditions: 50 µM final concentration, 10 µM GTP
T1 construct: (Ec)Ffh (full-length) was concentrated on a 10 kDa centrifugal filter; (Ec)FtsY (full-length) was re-buffered in HT buffer; His-tag; made in house; host or cells: E. coli
T1 sequence (P0AGD7 whole entry): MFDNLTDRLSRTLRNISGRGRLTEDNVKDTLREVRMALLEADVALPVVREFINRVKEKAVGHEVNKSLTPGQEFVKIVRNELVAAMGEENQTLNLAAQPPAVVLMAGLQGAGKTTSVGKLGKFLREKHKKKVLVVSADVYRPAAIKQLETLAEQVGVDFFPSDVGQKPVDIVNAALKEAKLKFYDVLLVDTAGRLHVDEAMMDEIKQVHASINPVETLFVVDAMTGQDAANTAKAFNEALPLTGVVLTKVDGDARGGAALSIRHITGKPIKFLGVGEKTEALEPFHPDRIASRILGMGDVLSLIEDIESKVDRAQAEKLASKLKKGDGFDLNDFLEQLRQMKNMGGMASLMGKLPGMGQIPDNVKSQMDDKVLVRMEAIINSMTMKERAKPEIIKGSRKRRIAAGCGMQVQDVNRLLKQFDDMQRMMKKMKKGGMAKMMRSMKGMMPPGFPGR
T1 sequence (P10121 whole entry): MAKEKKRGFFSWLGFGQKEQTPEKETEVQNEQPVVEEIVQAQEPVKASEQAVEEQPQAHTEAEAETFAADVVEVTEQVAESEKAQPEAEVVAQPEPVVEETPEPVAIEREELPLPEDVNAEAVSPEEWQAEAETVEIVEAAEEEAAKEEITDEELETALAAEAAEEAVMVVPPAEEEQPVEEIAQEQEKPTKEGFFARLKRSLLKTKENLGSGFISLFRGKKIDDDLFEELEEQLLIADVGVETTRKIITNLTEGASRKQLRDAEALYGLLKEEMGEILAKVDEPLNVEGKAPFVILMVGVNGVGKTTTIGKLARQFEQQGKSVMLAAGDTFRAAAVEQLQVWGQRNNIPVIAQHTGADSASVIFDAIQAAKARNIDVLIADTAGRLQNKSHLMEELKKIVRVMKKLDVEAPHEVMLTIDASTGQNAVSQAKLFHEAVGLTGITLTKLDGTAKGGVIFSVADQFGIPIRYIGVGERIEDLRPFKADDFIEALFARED
Description: For in vitro synthesizing FtsQ- and LepB-RNCs, the T7-dependent expression vectors pKSM-FtsQ and pKSM-LepB were used[37],[79]. In brief, the first 102 amino acids of LepB, and the first 120 amino acids of FtsQ were fused to the SecM stalling sequence and cloned into the pET19b vector. In vitro synthesis was performed in a coupled transcription/translation system as described for YohP. After in vitro synthesis, the RNCs were incubated with INVs (1 µL), liposomes (2 µL), or SecYEG-proteoliposomes (2 µL; 100 ng SecYEG µL^−1) in floatation buffer (50 mM triethanolamine acetate, pH 8.0; 10 µM GTP, 10 mM magnesium acetate, 70 mM potassium acetate; 250 mM sucrose and 1 mM DTT) for 15 min at 25 °C. When indicated, SRP/FtsY (20 ng µL^−1 each) and ppGpp or pppGpp (50 µM final concentration) was present during incubation. Membrane binding of RNCs was assayed by floatation analyses. The reaction mixture was adjusted to 1.6 M sucrose (final volume 100 µL) and overlaid with 200 µL of 1.25 M sucrose and 100 µL 0.25 M sucrose, each prepared in floatation buffer. Following centrifugation in a TLA 100.2 rotor (Beckmann-Coulter) at […] for 90 min, the upper 200 µL of the gradient, containing the membrane fraction (MF) were withdrawn and precipitated with 10% (w/v) TCA (final concentration). The pelleted (non-bound soluble fraction, SF) RNCs were resuspended in the remaining 200 µL of the gradient and TCA precipitated. Samples were subsequently analyzed by 15% SDS-PAGE and autoradiography. RNC binding to membranes was quantified by using the ImageQuant (GE Healthcare, München, Germany) software. The experiments were performed at least three times as independent experiments and representative images are shown. Mean values and SEM values were determined by using either Excel (Microsoft Corp.) or GraphPad Prism (GraphPad Prism Corp. San Diego).

Row | Structure (SMILES) | YohP insertion into INV [1] | membrane targeting of FtsQ-RNCs (SRP/FtsY) | membrane targeting of LepB-RNCs (SRP/FtsY)
1 | Nc1nc2c(ncn2[C@@H]2O[C@H](COP(=O)(O)OP(=O)(O)O)[C@@H](OP(=O)(O)OP(=O)(O)O)[C@H]2O)c(=O)[nH]1 [ppGpp] | complete block of insertion | completely blocked | completely blocked
2 | Nc1nc2c(ncn2[C@@H]2O[C@H](COP(=O)(O)OP(=O)(O)OP(=O)(O)O)[C@@H](OP(=O)(O)OP(=O)(O)O)[C@H]2O)c(=O)[nH]1 [pppGpp] | complete block of insertion | completely blocked | completely blocked
